Here are results for three molecules from article PMC10885410, “Mining and functional characterization of NADPH-cytochrome P450 reductases of the DNJ biosynthetic pathway in mulberry leaves” (BMC Plant Biology, 2024).

One data set concerns the target T1, MaC3'H-MaCPR2 (Morus alba, UniProt A0A5P9L9Q5).
T1 construct: full ORFs of MaC3'H and MaCPR2 (715 aa) co-expressed from pESC-Trp (GAL1/GAL10) in Saccharomyces cerevisiae INVSc1; with NADPH--cytochrome P450 reductase
T1 sequence (A0A5P9L9Q5 1-509): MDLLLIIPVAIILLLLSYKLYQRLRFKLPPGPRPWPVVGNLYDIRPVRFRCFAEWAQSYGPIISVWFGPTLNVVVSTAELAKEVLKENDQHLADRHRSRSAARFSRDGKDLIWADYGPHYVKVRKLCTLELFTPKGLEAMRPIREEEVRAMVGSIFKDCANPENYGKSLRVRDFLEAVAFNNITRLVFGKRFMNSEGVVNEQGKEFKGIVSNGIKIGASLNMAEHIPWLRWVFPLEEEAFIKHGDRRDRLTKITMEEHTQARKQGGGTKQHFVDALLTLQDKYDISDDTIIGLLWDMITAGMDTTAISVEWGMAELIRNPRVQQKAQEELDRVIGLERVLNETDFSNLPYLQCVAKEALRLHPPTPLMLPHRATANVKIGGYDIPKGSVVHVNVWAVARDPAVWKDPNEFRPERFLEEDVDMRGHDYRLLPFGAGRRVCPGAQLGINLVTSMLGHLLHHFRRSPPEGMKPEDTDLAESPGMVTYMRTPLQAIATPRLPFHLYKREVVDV
As to the kind of experiment: yeast feeding, product by HPLC and LC-MS. It is filed as cell-based. To be noted: 100 μM fed to yeast culture, 48 h, 30 °C; needs co-expressed MaCPR2.

Data set [1] relates to NC(=O)C1=CN([C@@H]2O[C@H](COP(=O)(O)OP(=O)(O)OC[C@H]3O[C@@H](n4cnc5c(N)ncnc54)[C@H](OP(=O)(O)O)[C@@H]3O)[C@@H](O)[C@H]2O)C=CC1. Briefly: purified protein. To be noted: cytochrome c 200 μM, 50 mM Tris-HCl pH 7.4, 0.1 mM EDTA, 25 °C, varied: cofactor.

For the molecule `O=C(/C=C/c1ccc(O)cc1)O[C@@H]1C[C@](O)(C(=O)O)C[C@@H](O)[C@H]1O` [3-O-p-coumaroylquinic acid], at MaC3'H-MaCPR2, the “yeast feeding, product by HPLC and LC-MS” value is “transfers electrons to MaC3'H hydroxylase, thus transforming 3-O-p-coumaroylquinic acid into chlorogenic acid”.

Turning to `O=C(/C=C/c1ccc(O)c(O)c1)O[C@@H]1C[C@](O)(C(=O)O)C[C@@H](O)[C@H]1O` [chlorogenic acid], the “yeast feeding, product by HPLC and LC-MS” value at MaC3'H-MaCPR2 is “expected product chlorogenic acid was detected in MaC3'H-MaCPR2/pESC-Trp/INVSCI engineered bacteria”.

MaCPR2 (Morus alba): in data set [1], the Km (usually the concentration of substrate that gives half-maximal velocity) came out at 13.93 ± 1.54 µM and the Vmax – broadly, the rate approached at saturating substrate – amounted to 2.43 µmol/min/mg.
